Experimental data from the CheMixHub ionic liquid set.

Assay: xn = mol fraction of the nth substance listed

FC(F)(F)c1ccccc1 + CCCC[N+]1(C)CCCC1.FC(F)(F)C(F)(F)[P-](F)(F)(F)(C(F)(F)C(F)(F)F)C(F)(F)C(F)(F)F
101 kPa
Settings | electrical conductivity [S/m] | viscosity [mPa·s]
298.1 K, x2 = 0 | – | 0.53
298.1 K, x2 = 0.059 | 0.368 | –
298.1 K, x2 = 0.099 | 0.536 | –
298.1 K, x2 = 0.144 | 0.663 | –
298.1 K, x2 = 0.198 | – | 3.67
298.1 K, x2 = 0.203 | 0.762 | –
298.1 K, x2 = 0.27 | – | 5.93
298.1 K, x2 = 0.274 | 0.696 | –
298.1 K, x2 = 0.371 | 0.619 | –
298.1 K, x2 = 0.495 | – | 21.7
298.1 K, x2 = 0.5 | 0.461 | –
298.1 K, x2 = 0.69 | 0.311 | 55.1
298.1 K, x2 = 0.858 | 0.172 | 111.8
303 K, x2 = 0.063 | 0.394 | –
303 K, x2 = 0.099 | 0.576 | –
303 K, x2 = 0.144 | 0.711 | –
303 K, x2 = 0.2 | 0.82 | –
303 K, x2 = 0.274 | 0.772 | –
303 K, x2 = 0.366 | – | 8.56
303 K, x2 = 0.374 | 0.681 | –
303 K, x2 = 0.497 | 0.553 | –
303 K, x2 = 0.498 | – | 17.83
303 K, x2 = 0.694 | 0.369 | –
303 K, x2 = 0.852 | – | 84.4
303 K, x2 = 0.858 | 0.212 | –
308.1 K, x2 = 0.063 | 0.415 | –
308.1 K, x2 = 0.102 | 0.612 | –
308.1 K, x2 = 0.141 | 0.766 | –
308.1 K, x2 = 0.201 | – | 2.93
308.1 K, x2 = 0.206 | 0.886 | –
308.1 K, x2 = 0.281 | 0.842 | –
308.1 K, x2 = 0.366 | – | 7.87
308.1 K, x2 = 0.378 | 0.761 | –
308.1 K, x2 = 0.5 | 0.611 | –
308.1 K, x2 = 0.69 | – | 39.4
308.1 K, x2 = 0.694 | 0.435 | –
308.1 K, x2 = 0.858 | 0.259 | –
313 K, x2 = 0.063 | 0.434 | –
313 K, x2 = 0.099 | 0.645 | –
313 K, x2 = 0.141 | – | 1.77
313 K, x2 = 0.142 | 0.817 | –
313 K, x2 = 0.203 | 0.951 | –
313 K, x2 = 0.278 | 0.911 | –
313 K, x2 = 0.371 | 0.834 | –
313 K, x2 = 0.498 | – | 12.73
313 K, x2 = 0.5 | 0.688 | –
313 K, x2 = 0.687 | – | 32.3
313 K, x2 = 0.697 | 0.504 | –
313 K, x2 = 0.859 | 0.31 | –
318.1 K, x2 = 0.063 | 0.456 | –
318.1 K, x2 = 0.099 | 0.678 | –
318.1 K, x2 = 0.142 | 0.86 | –
318.1 K, x2 = 0.2 | 1.02 | –
318.1 K, x2 = 0.275 | 0.988 | –
318.1 K, x2 = 0.369 | – | 6.11
318.1 K, x2 = 0.372 | 0.914 | –
318.1 K, x2 = 0.504 | 0.757 | –
318.1 K, x2 = 0.687 | – | 26.6
318.1 K, x2 = 0.694 | 0.577 | –
318.1 K, x2 = 0.855 | 0.361 | –
323 K, x2 = 0 | – | 0.46
323 K, x2 = 0.026 | 0.204 | –
323 K, x2 = 0.095 | – | 1.09
323 K, x2 = 0.099 | 0.715 | –
323 K, x2 = 0.142 | 0.908 | –
323 K, x2 = 0.201 | 1.08 | –
323 K, x2 = 0.278 | 1.07 | –
323 K, x2 = 0.372 | 0.991 | –
323 K, x2 = 0.498 | – | 9.89
323 K, x2 = 0.501 | 0.834 | –
323 K, x2 = 0.694 | 0.658 | –
323 K, x2 = 0.856 | – | 37.4
323 K, x2 = 0.862 | 0.416 | –

CN(C)C=O + CCCC[P+](C)(CCCC)CCCC.COS(=O)(=O)[O-]
100 kPa, x2 = 0
Settings | viscosity [mPa·s]
308.15 K | 0.717
323.15 K | 0.63

CCCCCCCCCC[n+]1ccn(C)c1.[Br-] + O
electrical conductivity [S/m], 101 kPa
Settings | 296 K | 301 K | 306 K | 311 K | 316 K
x1 = 0.0001622 | – | – | – | – | 0.0606
x1 = 0.0002342 | – | – | – | – | 0.0892
x1 = 0.0002522 | 0.0652 | – | – | 0.0827 | –
x1 = 0.0003423 | 0.0864 | – | 0.1 | 0.107 | 0.117
x1 = 0.0003603 | – | 0.0919 | – | – | –
x1 = 0.0004503 | 0.102 | 0.11 | 0.118 | 0.131 | 0.14
x1 = 0.0005763 | 0.125 | 0.134 | 0.141 | 0.155 | 0.168
x1 = 0.0007023 | 0.141 | 0.152 | 0.162 | 0.175 | 0.191
x1 = 0.0008462 | – | 0.172 | – | – | 0.223
x1 = 0.0008642 | 0.163 | – | 0.188 | 0.202 | –
x1 = 0.001026 | 0.176 | 0.186 | 0.205 | 0.221 | 0.248
x1 = 0.001206 | 0.195 | 0.204 | 0.223 | 0.243 | 0.272
x1 = 0.001422 | 0.205 | 0.22 | 0.237 | 0.254 | 0.291
x1 = 0.001673 | 0.216 | 0.23 | 0.257 | 0.271 | 0.309
x1 = 0.00196 | 0.234 | 0.24 | 0.263 | 0.28 | 0.323
x1 = 0.002301 | – | – | 0.274 | 0.293 | 0.34
x1 = 0.002319 | – | 0.251 | – | – | –

298.15 K, 100 kPa, frequency 5e-05 MHz
Settings | electrical conductivity [S/m]
x1 = 0.0003459 | 0.175
x1 = 0.0003945 | 0.199
x1 = 0.0004629 | 0.235
x1 = 0.0004917 | 0.249
x1 = 0.0005259 | 0.265
x1 = 0.0005781 | 0.289
x1 = 0.0006231 | 0.31
x1 = 0.0006537 | 0.325
x1 = 0.0006861 | 0.34
x1 = 0.0007311 | 0.36
x1 = 0.0007563 | 0.37
x1 = 0.0007922 | 0.374
x1 = 0.0009038 | 0.387
x1 = 0.000938 | 0.391
x1 = 0.0009775 | 0.395
x1 = 0.001044 | 0.403
x1 = 0.001082 | 0.407
x1 = 0.001118 | 0.41
x1 = 0.001152 | 0.414
x1 = 0.001206 | 0.422

CCCCCC[n+]1ccn(C)c1.F[P-](F)(F)(F)(F)F + O
101 kPa, x2 = 0.22
Settings | electrical conductivity [S/m] | viscosity [mPa·s]
293.15 K | – | 269
295.15 K | 0.1 | –

CCCC[n+]1ccn(C)c1.F[P-](F)(F)(F)(F)F + CCCC[n+]1ccn(C)c1.F[B-](F)(F)F
101 kPa
Settings | viscosity [mPa·s]
298.15 K, x1 = 0.1034 | 116.1
298.15 K, x1 = 0.833 | 227
298.15 K, x1 = 0.8877 | 237
299.15 K, x1 = 0.1034 | 110.2
299.15 K, x1 = 0.2095 | 121.3
299.15 K, x1 = 1 | 259
301.15 K, x1 = 0.0568 | 91.6
301.15 K, x1 = 0.1034 | 99.5
301.15 K, x1 = 1 | 232
302.15 K, x1 = 0.0568 | 87.1
302.15 K, x1 = 0.3825 | 118.8
302.15 K, x1 = 0.4647 | 124.4
303.15 K, x1 = 0.0568 | 82.9
305.15 K, x1 = 0.6928 | 136.5
305.15 K, x1 = 0.945 | 166.1
307.15 K, x1 = 0.3825 | 92.5
307.15 K, x1 = 0.833 | 136.1
307.15 K, x1 = 0.945 | 149.7
308.15 K, x1 = 0.2095 | 77.4
308.15 K, x1 = 0.3825 | 88.1
308.15 K, x1 = 0.5385 | 98.8
308.15 K, x1 = 1 | 156

CN(C)C=O + CCCCCCCCn1cc[n+](C)c1.O=S(=O)([N-]S(=O)(=O)C(F)(F)F)C(F)(F)F
101 kPa, x2 = 0
Settings | viscosity [mPa·s]
293.15 K | 0.881
303.15 K | 0.771
313.15 K | 0.668
323.15 K | 0.605
333.15 K | 0.553
353.15 K | 0.479
363.15 K | 0.447

CCCC[n+]1ccn(C)c1.O=S(=O)([N-]S(=O)(=O)C(F)(F)F)C(F)(F)F + OCCOCCOCCOCCO
Settings | viscosity [mPa·s]
298.15 K, 101 kPa, x2 = 0 | 45.3

CCCC[n+]1ccn(C)c1.O=S(=O)([N-]S(=O)(=O)C(F)(F)F)C(F)(F)F + OCC(F)(F)F
Settings | viscosity [mPa·s]
283.15 K, 101 kPa, x2 = 0 | 107

CC(CC(C)(C)C)CP(=O)([O-])CC(C)CC(C)(C)C.CCCCCCCCCCCCCC[P+](CCCCCC)(CCCCCC)CCCCCC + CCC(=O)O + O
298.15 K, 100 kPa
Settings | viscosity [mPa·s]
x2 = 0.02049, x1 = 0.1002 | 133
x2 = 0.02069, x1 = 0.09762 | 145
x2 = 0.04451, x1 = 0.115 | 139
x2 = 0.231, x1 = 0.1669 | 147
x2 = 0.3019, x1 = 0.1781 | 150
x2 = 0.3925, x1 = 0.1645 | 145
x2 = 0.4515, x1 = 0.1697 | 133
x2 = 0.4652, x1 = 0.1675 | 127
x2 = 0.4969, x1 = 0.154 | 133
x2 = 0.5235, x1 = 0.1181 | 81
x2 = 0.5255, x1 = 0.1239 | 85
x2 = 0.5271, x1 = 0.1398 | 114
x2 = 0.5377, x1 = 0.108 | 60
x2 = 0.571, x1 = 0.09705 | 52
